Drawing on ChEMBL document CHEMBL5096223, “Design, synthesis, and biological evaluation of 2-arylamino-4-(piperidin-4-yloxy)pyrimidines as potent EGFRT790M/L858R inhibitors to treat non-small cell lung cancer” (Bioorg Med Chem, 2022), this text covers IC50 and Ratio IC50 for 19 molecules.

Data set [1] deals with Epidermal growth factor receptor (Homo sapiens, UniProt P00533, L858R/T790M). Put plainly: Inhibition of N-terminal GST-tagged human recombinant EGFR T790M/L858R mutant (695 to end residues) expressed in baculovirus-infected Sf9 cells using poly (4:1 Glu,Tyr) peptide as substrate incubated for 60 mins in presence of ATP by ADP-Glo kinase assay. (In general: ADP-Glo turns the ADP formed in a reaction into a luminescent signal.)

The target of data set [2] is Epidermal growth factor receptor (Homo sapiens, UniProt P00533). Put plainly: Inhibition of N-terminal GST-tagged human recombinant wild type EGFR (695 to end residues) expressed in baculovirus-infected Sf9 cells using poly (4:1 Glu,Tyr) peptide as substrate incubated for 60 mins in presence of ATP by ADP-Glo kinase assay.
The species named for data set [3] is Homo sapiens. The experiment in a line: Selectivity index, ratio of IC50 for N-terminal GST-tagged human recombinant wild type EGFR (695 to end residues) expressed in baculovirus-infected Sf9 cells to IC50 for N-terminal GST-tagged human recombinant EGFR T790M/L858R mutant (695 to end residues) expressed in baculovirus-infected Sf9 cells. In kind it is functional.

In data set [4] the test system is NCI-H1975. Put plainly: Antiproliferative activity against human NCI-H1975 cells harboring EGFR T790M/L858R mutant assessed as reduction in cell growth incubated for 72 hrs by MTT assay. The settings on record: NCI-H1975, 72 h. In kind it is functional, cell-based.
The nature of data set [5]: Cytotoxicity against human A-431 cells harboring wild type EGFR assessed as reduction in cell viability incubated for 72 hrs by MTT assay. In kind it is toxicity, cell-based.
Data set [6] relates to ASPC1. Put plainly: Antiproliferative activity against human ASPC1 cells harboring KRAS G12D mutant assessed as reduction in cell growth incubated for 72 hrs by MTT assay. In kind it is functional, cell-based. As to conditions: ASPC1, 72 h. In general terms: Tetrazolium dyes change colour on reduction, which living cells bring about.
Data set [7] relates to NCI-H358. Put plainly: Antiproliferative activity against human NCI-H358 cells harboring KRAS G12C mutant assessed as reduction in cell growth incubated for 72 hrs by MTT assay. In kind it is functional, cell-based. The settings on record: NCI-H358, 72 h.
Data set [8] relates to SW-620. The experiment in a line: Antiproliferative activity against human SW620 cells harboring KRAS G12V mutant assessed as reduction in cell growth incubated for 72 hrs by MTT assay. In kind it is functional, cell-based. The settings on record: SW-620, 72 h.
Data set [9] can be described thus: Cytotoxicity against human HBE cells assessed as reduction in cell viability incubated for 72 hrs by MTT assay. In kind it is toxicity, cell-based, Epithelial cell.
Data set [10] is described as follows: Cytotoxicity against human L02 cells assessed as reduction in cell viability incubated for 72 hrs by MTT assay. In kind it is toxicity, cell-based.

Epidermal growth factor receptor (Homo sapiens, UniProt P00533), sequence (P00533 whole entry): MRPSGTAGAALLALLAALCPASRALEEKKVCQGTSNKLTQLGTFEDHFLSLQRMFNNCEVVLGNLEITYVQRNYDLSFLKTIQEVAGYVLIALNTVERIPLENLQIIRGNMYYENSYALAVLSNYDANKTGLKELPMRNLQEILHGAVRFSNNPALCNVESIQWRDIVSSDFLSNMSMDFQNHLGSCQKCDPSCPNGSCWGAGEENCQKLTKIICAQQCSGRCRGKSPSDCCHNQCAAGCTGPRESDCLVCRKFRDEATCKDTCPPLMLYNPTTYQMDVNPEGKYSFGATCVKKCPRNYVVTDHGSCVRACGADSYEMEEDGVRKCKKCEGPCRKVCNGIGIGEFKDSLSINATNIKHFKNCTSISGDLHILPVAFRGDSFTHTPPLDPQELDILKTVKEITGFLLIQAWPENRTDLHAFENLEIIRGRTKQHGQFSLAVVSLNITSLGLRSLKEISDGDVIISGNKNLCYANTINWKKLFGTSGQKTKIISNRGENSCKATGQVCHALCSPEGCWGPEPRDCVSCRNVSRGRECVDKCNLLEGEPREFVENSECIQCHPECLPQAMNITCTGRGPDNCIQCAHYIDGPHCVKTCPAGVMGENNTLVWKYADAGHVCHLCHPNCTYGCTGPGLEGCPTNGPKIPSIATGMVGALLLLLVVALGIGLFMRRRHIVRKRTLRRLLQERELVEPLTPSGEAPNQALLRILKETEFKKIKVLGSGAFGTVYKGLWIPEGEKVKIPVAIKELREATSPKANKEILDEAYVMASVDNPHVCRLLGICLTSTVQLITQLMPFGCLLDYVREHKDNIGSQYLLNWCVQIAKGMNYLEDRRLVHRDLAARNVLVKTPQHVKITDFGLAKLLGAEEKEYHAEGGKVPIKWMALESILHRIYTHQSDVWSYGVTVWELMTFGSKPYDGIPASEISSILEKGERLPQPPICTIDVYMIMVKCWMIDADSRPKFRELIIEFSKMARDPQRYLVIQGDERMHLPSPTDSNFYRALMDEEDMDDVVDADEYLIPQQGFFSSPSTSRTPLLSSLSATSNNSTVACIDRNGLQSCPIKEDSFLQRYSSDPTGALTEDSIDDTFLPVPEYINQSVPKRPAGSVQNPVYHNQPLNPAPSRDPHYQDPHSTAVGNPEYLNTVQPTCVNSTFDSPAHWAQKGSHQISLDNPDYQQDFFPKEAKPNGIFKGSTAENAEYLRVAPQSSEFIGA
Epidermal growth factor receptor (Homo sapiens, UniProt P00533, L858R/T790M), sequence (P00533 25-1210 T790M/L858R limits assumed): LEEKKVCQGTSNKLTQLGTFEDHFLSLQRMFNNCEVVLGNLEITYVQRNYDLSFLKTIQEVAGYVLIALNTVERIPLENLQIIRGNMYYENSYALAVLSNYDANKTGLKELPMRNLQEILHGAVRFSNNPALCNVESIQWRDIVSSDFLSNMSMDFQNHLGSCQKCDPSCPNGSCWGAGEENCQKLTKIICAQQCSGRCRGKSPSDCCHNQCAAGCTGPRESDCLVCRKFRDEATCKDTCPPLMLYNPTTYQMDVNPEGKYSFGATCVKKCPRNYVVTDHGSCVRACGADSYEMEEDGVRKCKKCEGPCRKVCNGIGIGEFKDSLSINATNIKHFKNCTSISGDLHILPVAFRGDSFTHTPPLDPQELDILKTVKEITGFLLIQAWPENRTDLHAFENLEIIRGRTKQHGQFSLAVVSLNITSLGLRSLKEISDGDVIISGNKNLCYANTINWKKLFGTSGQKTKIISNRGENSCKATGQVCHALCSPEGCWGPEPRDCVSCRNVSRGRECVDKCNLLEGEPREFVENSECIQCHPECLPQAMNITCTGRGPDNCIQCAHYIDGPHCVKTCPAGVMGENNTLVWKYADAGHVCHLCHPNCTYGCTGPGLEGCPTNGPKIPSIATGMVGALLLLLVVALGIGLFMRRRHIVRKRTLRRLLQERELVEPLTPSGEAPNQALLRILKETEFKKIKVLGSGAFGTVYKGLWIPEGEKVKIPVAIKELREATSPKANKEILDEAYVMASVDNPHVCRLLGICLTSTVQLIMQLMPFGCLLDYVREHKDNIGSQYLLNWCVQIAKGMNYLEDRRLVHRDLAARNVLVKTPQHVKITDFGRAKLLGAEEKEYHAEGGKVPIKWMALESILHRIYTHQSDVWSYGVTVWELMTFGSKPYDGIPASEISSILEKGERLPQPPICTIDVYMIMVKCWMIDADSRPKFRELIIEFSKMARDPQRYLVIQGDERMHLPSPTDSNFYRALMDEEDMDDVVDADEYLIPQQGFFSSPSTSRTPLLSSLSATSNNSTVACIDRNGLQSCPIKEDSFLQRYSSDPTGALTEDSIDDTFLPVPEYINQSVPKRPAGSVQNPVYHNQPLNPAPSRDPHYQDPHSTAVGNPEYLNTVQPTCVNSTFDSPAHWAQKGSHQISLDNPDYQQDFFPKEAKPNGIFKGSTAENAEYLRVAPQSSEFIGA

For `C=CC(=O)N1CCC(Oc2nc(Nc3cnn(C)c3)nc3ccsc23)CC1`, the half-maximal inhibitory concentration (IC50) in data set [1] turned out to be 0.135 µM; in data set [2] it was 0.196 µM; in data set [4], 2.31 µM; in data set [6] it was 0.71 µM; in data set [7] it was 17.6 µM; in [8], 6.2 µM. Moreover, the Ratio IC50 in data set [3] amounted to 1.45. Further, the half-inhibitory concentration (IC50) at 72 h is 4.77 µM in data set [5], greater than 20 µM in data set [9] and 8.92 µM in data set [10].

As to `C=CC(=O)N1CCC(Oc2nc(Nc3ccc(N4CCOCC4)cc3)nc3ccsc23)CC1`, the 50% inhibitory concentration (IC50) was 0.00653 µM in data set [1]; 0.197 µM in data set [2]; 5.8 µM in data set [4]; 2.77 µM in [6]; 16.5 µM in data set [7]; 4.82 µM in data set [8]. Further, the Ratio IC50 in [3] is 30.2. In addition, the half-inhibitory concentration (IC50) at 72 h was found to be 3.89 µM in data set [5], 16.7 µM in data set [9] and 16.2 µM in [10].

Consider `C=CC(=O)N1CCC(Oc2nc(Nc3ccc(N4CCN(CCO)CC4)cc3)ncc2Cl)CC1`, for which the half-inhibitory concentration (IC50) in data set [1] came to 0.0421 µM; in data set [2], 0.124 µM; in data set [4], 1.53 µM; in data set [6], 2.74 µM; in [7], 4.66 µM; in data set [8], 0.3 µM. For the same molecule, the Ratio IC50 in [3] is 2.94. In addition, the concentration for half-maximal inhibition (IC50) at 72 h stood at 2.01 µM in data set [5], 16.1 µM in data set [9] and 4.47 µM in [10].

As to `C=CC(=O)N1CCC(Oc2nc(Nc3ccc(N4CCN(C)CC4)c(F)c3)nc3ccsc23)CC1`, the 50% inhibitory concentration (IC50) in data set [4] was 1.89 µM; in [6] it was greater than 20 µM; in data set [7] it was 6.26 µM; in data set [8], 3.57 µM. In addition, the half-inhibitory concentration (IC50) at 72 h turned out to be 1.38 µM in [5], 4.05 µM in data set [9] and 1.4 µM in [10].

Take `C=CC(=O)N1CCC(Oc2nc(Nc3ccc(N4CCN(C)CC4)cc3OC)nc3ccsc23)CC1`: the IC50 is 0.0142 µM in data set [1]; 0.247 µM in [2]; 1.67 µM in [4]; 0.65 µM in data set [6]; 7.4 µM in data set [7]; 7.33 µM in data set [8]. The Ratio IC50 in data set [3] stood at 17.4. Moreover, the IC50 at 72 h in data set [5] turned out to be 2.07 µM; in data set [9] it was 18.6 µM; in data set [10] it was 1.97 µM.

With `C=CC(=O)N1CCC(Oc2nc(Nc3ccc(N4CCN(C)CC4)c(F)c3)ncc2Cl)CC1`, the IC50 was determined as 2.09 µM in data set [4], 3.88 µM in [6], 1.51 µM in data set [7] and 1.64 µM in [8]. For the same molecule, the IC50 at 72 h worked out at 3.26 µM in [5], 8.91 µM in data set [9] and 5.38 µM in data set [10].

For `C=CC(=O)Nc1cc(Nc2nccc(-c3cn(C)c4ccccc34)n2)c(OC)cc1N(C)CCN(C)C` [OSIMERTINIB], in data set [5], the IC50 at 72 h is 1.32 µM.

For `C=CC(=O)N1CCC(Oc2nc(Nc3ccc(N4CCN(C)CC4)cc3)nc3[nH]ccc23)CC1`, the IC50 came out at 0.00568 µM in data set [1]; 0.0361 µM in data set [2]; 1.72 µM in [4]; 1.21 µM in data set [6]; 4.22 µM in data set [7]; 2.47 µM in data set [8]. In data set [3], the Ratio IC50 turned out to be 6.35. Also, the IC50 at 72 h in data set [5] amounted to 1.65 µM; in data set [9], 7.94 µM; in data set [10] it was 6.25 µM.

`C=CC(=O)N1CCC(Oc2nc(Nc3ccc(N4CCN(C)CC4)cc3)ncc2Cl)CC1`: the half-maximal inhibitory concentration (IC50) in data set [4] worked out at 1.7 µM; in data set [6], 5.84 µM; in data set [7], 3.96 µM; in [8] it was 4.63 µM. For the same molecule, the IC50 at 72 h in data set [5] worked out at 1.45 µM; in data set [9], 15 µM; in [10], 8.77 µM.

As to `C=CC(=O)N1CCC(Oc2nc(Nc3ccn(C)n3)nc3ccsc23)CC1`, the concentration for half-maximal inhibition (IC50) in [1] was 0.126 µM; in [2] it was 0.224 µM; in data set [4], 16.7 µM; in data set [6], less than 0.2 µM; in [7], 20 µM; in [8], greater than 20 µM. Also, the Ratio IC50 in [3] stood at 1.78. The IC50 at 72 h in data set [5] is greater than 20 µM; in data set [9] it was greater than 20 µM; in [10], 16.7 µM.

Take `C=CC(=O)N1CCC(Oc2nc(Nc3ccc(N4CCN(C(C)=O)CC4)cc3OC)nc3[nH]ccc23)CC1`: the concentration for half-maximal inhibition (IC50) in data set [1] came out at 0.0313 µM; in data set [2] it was 0.133 µM; in data set [4], 3.78 µM; in data set [6], 4.92 µM; in data set [7] it was 3.56 µM; in data set [8], 5.8 µM. The Ratio IC50 in data set [3] was found to be 4.23. In addition, the IC50 at 72 h in data set [5] turned out to be 3.51 µM; in [9], 12.9 µM; in [10], 16.1 µM.

As to `C=CC(=O)N1CCC(Oc2nc(Nc3ccc(N4CCN(C(C)=O)CC4)cc3OC)nc3ccsc23)CC1`, the IC50 in data set [1] stood at 0.0202 µM; in data set [2] it was 0.0607 µM; in data set [4], 3.74 µM; in data set [6], 0.48 µM; in data set [7], 14.6 µM; in data set [8], 8.61 µM. Besides, the Ratio IC50 in [3] came out at 3. In addition, the values for the IC50 at 72 h in data set [5], in data set [9] and in data set [10] were 3.92 µM, 18.9 µM and 10.6 µM, respectively.

For the molecule `C=CC(=O)N1CCC(Oc2nc(Nc3cnn(C)c3)nc3[nH]ccc23)CC1`, the IC50 in data set [1] was found to be 0.204 µM; in [2], 0.387 µM; in data set [4], 0.93 µM; in data set [6] it was 1.15 µM; in data set [7], 3.07 µM; in data set [8], 2.36 µM. Besides, in [3], the Ratio IC50 was 1.9. Besides, the half-maximal inhibitory concentration (IC50) at 72 h was 3.99 µM in data set [5], greater than 20 µM in data set [9] and 10.2 µM in data set [10].

`C=CC(=O)N1CCC(Oc2nc(Nc3ccc(CN4CCC(CO)CC4)cc3)ncc2Cl)CC1`: the IC50 in data set [1] is 0.0123 µM; in [2] it was 0.18 µM; in data set [4] it was 1.07 µM; in data set [6] it was 2.18 µM; in data set [7], 16 µM; in data set [8], 1.99 µM. Further, the Ratio IC50 in data set [3] is 14.6. In addition, the IC50 at 72 h stood at 1.84 µM in data set [5], 5.86 µM in data set [9] and 2.12 µM in data set [10].

With `CCC(=O)N1CCC(Oc2nc(Nc3ccc(N4CCN(C)CC4)cc3)nc3ccsc23)CC1`, the IC50 was determined as 0.356 µM in data set [1], 0.268 µM in data set [2] and 26.1 µM in data set [4].

Take `C=CC(=O)N1CCC(Oc2nc(Nc3ccc(N4CCN(C)CC4)c(F)c3)nc3[nH]ccc23)CC1`: the IC50 in data set [1] stood at 0.0134 µM; in [2], 0.119 µM; in [4], 0.89 µM; in [6], 0.4 µM; in [7] it was 3.62 µM; in [8], 1.6 µM. Also, the Ratio IC50 in [3] worked out at 8.87. Further, the IC50 at 72 h in data set [5] was determined as 1.29 µM; in data set [9] it was 3.02 µM; in data set [10] it was 1.89 µM.

As to `C=CC(=O)N1CCC(Oc2nc(Nc3ccc(N(C)CCN(C)C)cc3OC)nc3[nH]ccc23)CC1`, the half-maximal inhibitory concentration (IC50) was determined as 0.0077 µM in data set [1]; 0.0593 µM in data set [2]; 4.14 µM in data set [4]; 5.13 µM in data set [6]; 5.62 µM in [7]; 7.84 µM in data set [8]. In data set [3], the Ratio IC50 came to 7.7. Besides, the half-inhibitory concentration (IC50) at 72 h in [5] is 16.7 µM; in data set [9], greater than 20 µM; in data set [10] it was 19 µM.

On to `C=CC(=O)N1CCC(Oc2nc(Nc3ccc(N4CCOCC4)cc3OC)nc3ccsc23)CC1`, for which the IC50 in data set [1] was 0.00966 µM; in data set [2] it was 0.246 µM; in [4], 5.87 µM; in data set [6] it was 0.51 µM; in data set [7], greater than 20 µM; in data set [8], 8.67 µM. Further, the Ratio IC50 in [3] was 25.5. Besides, the IC50 at 72 h was 15.2 µM in data set [5], greater than 20 µM in [9] and 18.2 µM in data set [10].

Consider `C=CC(=O)N1CCC(Oc2nc(Nc3ccc(N4CCN(C)CC4)cc3OC)nc3[nH]ccc23)CC1`, for which the half-maximal inhibitory concentration (IC50) was 0.0123 µM in data set [1]; 0.0368 µM in data set [2]; 4.36 µM in [4]; 7.04 µM in data set [6]; 9.86 µM in [7]; 9.88 µM in [8]. Further, the Ratio IC50 in data set [3] stood at 2.99. The figures for the IC50 at 72 h in [5], in data set [9] and in [10] were 2.71 µM, greater than 20 µM and 18 µM, respectively.

As usually defined, the IC50 is the concentration that inhibits the measured activity by half.
